What all share (assay type): cell-based, mice
One series relates to hTNF-activated wt SFs. The series can be described thus: CCL5 and CCL20 ELISA on hTNF-activated wild type synovial fibroblasts. The following applies: for activity at 10 µM / activity at 50 µM / IC50 / activity at 25 µM: Mus musculus, Fibroblast; for activity at 10 µM / activity at 50 µM / activity at 25 µM / CCL5 WT, percentage of level in untreated cells / CCL20 WT, percentage of level in untreated cells: 48 h; for activity at 50 µM: compound 50 μM; for IC50: 10 ng/ml hTNF stimulation. An excerpt:
(§1) Primary SFs were derived from a) human TNF transgenic (hTNFTg) mice (Keffer et al., 1991) as well as from b) CBA/C57BL6 wild type mice.
By testing the compounds in a) and b) we accessed their effect on the activated SFs phenotype caused by both the endogenous hTNF upregulation and the exogenous hTNF administration. In this way it was confirm the ability of the compounds of the invention to act in the TNF pathway directly downstream of TNF.
(§2) SFs were isolated as previously described by Armaka et al., 2009, from the ankle joints of hTNFtg or CBA/C57BL6 wild type (wt) littermates. Briefly, ankle joints were digested with Collagenase IV (Sigma Aldrich, C5138) for 45 minutes at a 37° C. shaking waterbath and after 5 days in culture at 37° C. and 5% CO2, a depletion of CD45+ lineage cells was performed using a Biotin anti-mouse CD45 Antibody (Biolegend, 103104) and Dynabeads™ Biotin Binder (ThermoFisher 11047), according to the manufacturer's protocol. After 10 days in culture, SFs were seeded overnight (O/N) at a concentration of 2×10^4 cells/well in a 96 well plate in 1×DMEM, supplemented with 100 U/ml Penicillin Streptomycin (P/S) and 10% Fetal Bovine Serum (FBS). The next day the cells were synchronized by starvation that included their O/N plating in low serum medium (0.5% FBS). Following the O/N starvation, the hTNFg and the WT SFs were treated with different concentrations of the experimental compounds. The SFs were at the same time activated with 10 ng/ml hTNF (Peprotech, 300-01A). 48 h following the treatment the cell culture supernatants were collected and analyzed by ELISA (R&S Systems, Duoset, DY478 and DY760) according to the manufacturer's protocol, for the detection of CCL5/Rantes and CCL20/Mip3, two known inflammatory chemokines. The IC50 values were determined as the concentration of the compounds required to reduce the levels of secreted CCL5 and CCL20 by 50%.
In order to determine the efficiency of the compounds of the invention, the same protocol was repeated with some minor modifications. Mainly, the concentration of hTNF was 10-fold reduced, i.e., adjusted to 1 ng/ml, and the SFs were seeded overnight at a concentration of 10^4 cells/well.
(§3) Table 7 summarizes the reduction of CCL5 and CCL20 levels achieved with the test compounds of the invention. Data are presented as percentages of the chemokine levels detected in treated cells compared to 100% levels of the chemokines detected in the untreated cells.
(§4) Table 8 summarizes the values of IC50 and toxicity for the test compounds of the invention. Dose response curves regarding the WT SFs were produced with 10 ng/ml hTNF stimulation for all compounds, with the exception of the compounds E and F, where WT cells were induced using hTNF at 1 ng/ml: […]

The next series relates to hTNFtg SFs. Nature of the series: CCL5 and CCL20 ELISA on hTNFtg synovial fibroblasts. Particulars: Mus musculus, Fibroblast; for activity at 10 µM: compound 10 μM; for activity at 10 µM / activity at 50 µM / activity at 25 µM: 48 h; for activity at 50 µM: compound 50 μM; for activity at 25 µM: compound 25 μM. As to the method:
as §1
hTNFtg mice overexpress human TNF, resulting in the spontaneous development of arthritis.
as §2, §3, §4
In general terms: In an ELISA, binding on a coated surface is turned into a signal by an enzyme label.

A further series concerns SFs and PMCs. The series can be described thus: Compound cytotoxicity, Crystal Violet assay. As to the method: The toxicity of the test compounds was assessed at several concentrations using the Crystal Violet assay on both SFs and PMCs. Adherent viable cells were Methanol fixed and stained with Crystal Violet. Optical density was quantified at […], as described in Feoktistova et al., 2016.

Setting [1] is: 10 ng/mL hTNF, compound 10 μM, read-out: CCL5 WT, percentage of level in untreated cells.
Where [2] appears, read: 10 ng/mL hTNF, compound 10 μM, read-out: CCL20 WT, percentage of level in untreated cells.
Setting [3] is: read-out: CCL5 hTNFtg, percentage of level in untreated cells.
The mark [4] stands for this setting: read-out: CCL20 hTNFtg, percentage of level in untreated cells.
Setting [5] is: read-out: IC50 (μM) CCL5 hTNFtg.
The mark [6] stands for this setting: read-out: IC50 (μM) CCL20 hTNFtg.

Like-named read-outs stand apart in the source and are kept apart here.

Regarding `COc1cc(N)c(Cl)cc1C(=O)NCC1(N2CCSCC2)CCCCCC1` [Compound 44, 4-amino-5-chloro-2-methoxy-N-((1-thiomorpholinocycloheptyl)methyl)benzamide], the activity at 10 µM was 30% in the series with hTNF-activated wt SFs (setting [1]), 75% with hTNF-activated wt SFs (setting [2]), 69% in the series with hTNFtg SFs (setting [3]) and 45% with hTNFtg SFs (setting [4]). In addition, the activity at 50 µM in the series on hTNF-activated wt SFs (10 ng/mL hTNF, read-out: CCL5 WT, percentage of level in untreated cells) worked out at 2%; in the series with hTNF-activated wt SFs (10 ng/mL hTNF, read-out: CCL20 WT, percentage of level in untreated cells) it was 46%; in the series on hTNFtg SFs (setting [3]) it was 26%; in the series with hTNFtg SFs (setting [4]) it was 27%. The IC50 (usually the concentration that gives 50% inhibition) with hTNF-activated wt SFs (read-out: IC50 (μM) CCL5 WT) is 3.7 µM; with hTNF-activated wt SFs (read-out: IC50 (μM) CCL20 WT), ~65 µM; with hTNFtg SFs (setting [5]) it was 12.6 µM; with hTNFtg SFs (setting [6]) it was ~15 µM. Further, the “Cell Toxicity” value with SFs and PMCs is >100 µM.
For the compound `COc1cc(N)c(Cl)cc1C(=O)NCC1(c2ccc(F)cc2)CCCCCC1` [Compound 57, 4-amino-5-chloro-N-((1-(4-fluorophenyl)cycloheptyl)methyl)-2-methoxybenzamide], the activity at 10 µM in the series with hTNF-activated wt SFs (setting [1]) is 49%; with hTNF-activated wt SFs (setting [2]) it was 13%; with hTNFtg SFs (setting [3]), 40%; in the series on hTNFtg SFs (setting [4]) it was 27%. The activity at 25 µM in the series with hTNF-activated wt SFs (10 ng/mL hTNF, compound 25 μM, read-out: CCL5 WT, percentage of level in untreated cells) is 14%; in the series with hTNF-activated wt SFs (10 ng/mL hTNF, compound 25 μM, read-out: CCL20 WT, percentage of level in untreated cells), 6%; in the series on hTNFtg SFs (setting [3]), 40%; in the series with hTNFtg SFs (setting [4]), 25%. Moreover, the IC50 in the series with hTNF-activated wt SFs (read-out: IC50 (μM) CCL5 WT) amounted to 18 µM; with hTNF-activated wt SFs (read-out: IC50 (μM) CCL20 WT), 3.5 µM; in the series with hTNFtg SFs (setting [5]), 4 µM; in the series with hTNFtg SFs (setting [6]), 2.4 µM. Moreover, the “Cell Toxicity” value with SFs and PMCs is >25 µM.
Take `COc1cc(N)c(Cl)cc1C(=O)NCC1(c2ccc(F)cc2Cl)CCCCCC1` [Compound 58, 4-amino-5-chloro-N-((1-(2-chloro-4-fluorophenyl)cycloheptyl)methyl)-2-methoxybenzamide]: the “CCL5 WT, percentage of level in untreated cells” value in the series on hTNF-activated wt SFs (1 ng/mL hTNF, compound 10 μM) is reported as 8%; in the series with hTNF-activated wt SFs (1 ng/mL hTNF, compound 25 μM) it was 9%; with hTNF-activated wt SFs (10 ng/mL hTNF, compound 10 μM), 0%; in the series on hTNF-activated wt SFs (10 ng/mL hTNF, compound 25 μM), 0%. Further, the “CCL20 WT, percentage of level in untreated cells” value in the series with hTNF-activated wt SFs (1 ng/mL hTNF, compound 25 μM) was found to be 14%; in the series on hTNF-activated wt SFs (10 ng/mL hTNF, compound 25 μM), 0%. Also, the activity at 10 µM in the series on hTNF-activated wt SFs (1 ng/mL hTNF, compound 10 μM, read-out: CCL20 WT, percentage of level in untreated cells) was found to be 15%; with hTNF-activated wt SFs (setting [2]) it was 48.5%; with hTNFtg SFs (setting [3]) it was 64%; in the series with hTNFtg SFs (setting [4]), 32.5%. Moreover, the IC50 in the series with hTNF-activated wt SFs (read-out: IC50 (μM) CCL5 WT) is 2.96 µM; with hTNF-activated wt SFs (read-out: IC50 (μM) CCL20 WT) it was 2.44 µM; in the series with hTNFtg SFs (setting [5]), 0.95 µM; with hTNFtg SFs (setting [6]) it was 0.74 µM. Besides, the activity at 25 µM was 53.5% in the series on hTNFtg SFs (setting [3]) and 22.5% in the series with hTNFtg SFs (setting [4]). In addition, in the series on SFs and PMCs, the “Cell Toxicity” value is >50 µM.
